Source: patent publication EP0741709B1, “AROMATIC 2-AMINO-IMIDAZOLE DERIVATIVES AS ALPHA-2A ADRENOCEPTOR AGONISTS” (Allergan Sales, Inc., priority 1994, dated 1995)

Tests used:
[1] = molecular target: T1, human α2A (Homo sapiens, UniProt P08913); assay: Receptor binding assay, [3H]rauwolscine, CHO-C10 cell membranes; details: 22°C, 30 minutes
T1 construct: expressed in transfected cells; host or cells: CHO (CHO-C10)
T1 sequence (P08913 1-465): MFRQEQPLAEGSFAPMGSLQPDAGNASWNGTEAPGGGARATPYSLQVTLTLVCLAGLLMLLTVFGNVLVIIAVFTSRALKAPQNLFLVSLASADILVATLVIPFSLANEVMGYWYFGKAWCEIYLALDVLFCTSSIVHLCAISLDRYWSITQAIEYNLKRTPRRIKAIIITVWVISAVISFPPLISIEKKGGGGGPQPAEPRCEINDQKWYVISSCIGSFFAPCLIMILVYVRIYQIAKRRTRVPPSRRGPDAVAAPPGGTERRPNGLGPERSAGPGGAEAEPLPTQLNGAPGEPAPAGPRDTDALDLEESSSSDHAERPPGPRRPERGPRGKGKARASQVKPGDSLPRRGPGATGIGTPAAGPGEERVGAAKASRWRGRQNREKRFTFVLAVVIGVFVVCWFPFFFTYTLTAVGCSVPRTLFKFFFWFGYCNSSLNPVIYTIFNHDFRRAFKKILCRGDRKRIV
Description: Cell preparation: […] Cells were harvested by scraping and placed into cold buffer of the following composition: 50 mM Tris-HCl, 5 mM EDTA, pH 7.4). Cells were then homogenized with a Polytron homogenizer for 2 X 10 sec at setting #7, and centrifuged for 20 minutes at 49,000 x g. The pellet fraction was washed (resuspended in Tris-HCl, pH 8 buffer and centrifuged for 15-20 minutes at 49,000 x g) 2 times and stored at -100°C until binding assay. Binding Studies: […] Frozen membrane pellet was resuspended in 25 mM glycine/glycine, pH 7.5 and incubated with radioligand under the following conditions: […] RKC-[^3H]rauwolscine, 0°C, 120 minutes; and, HCC-[^3H]prazosin, 22°C, 30 minutes in a final volume of 500 ul. At the end of the incubation period, the samples were filtered through glass filters (Whatman GF/B) in a 96 well cell harvester and rapidly washed four times with 4 mL of iced-cold 50 mM Tris-HCl buffer. The filters were then oven dried and transferred to scintillation vials containing 10 mL of Beckman's Ready Protein® scintillation cocktail for counting. […] Protein concentrations were determined with a protein assay kit from Bio Rad. Binding isotherms, equilibrium dissociation and affinity constants were analyzed and determined by the non-linear least squares curve fitting programs EBDA (BioSoft) or AccuFit Competition/Saturation by Beckman. Cell preparation: […] Cells were harvested by scraping and placed into cold buffer of the following composition: 50 mM Tris-HCl, 5 mM EDTA, pH 7.4). Cells were then homogenized with a Polytron homogenizer for 2 X 10 sec at setting #7, and centrifuged for 20 minutes at 49,000 x g. The pellet fraction was washed (resuspended in Tris-HCl, pH 8 buffer and centrifuged for 15-20 minutes at 49,000 x g) 2 times and stored at -100°C until binding assay. […] Frozen membrane pellet was resuspended in 25 mM glycine/glycine, pH 7.4 and incubated with radioligand under the following conditions: […] At the end of the incubation period, the samples were filtered through glass fiber filters (Whatman GF/B) in a 96 well cell harvester and rapidly washed four times with 4 mL of iced-cold 50 mM Tris-CHl buffer. The filters were then oven dried and transferred to scintillation vials containing 5 mL of Beckman's Ready Protein® scintillation cocktail for counting. […] Protein concentrations were determined with a protein assay kit from Bio Rad. Binding isotherms, equilibrium dissociation and affinity constants were analyzed and determined by the non-linear least squares curve fitting programs AccuFit Competition/Saturation by Beckman.

[2] = molecular target: α1 receptors; assay: Receptor binding assay, [3H]prazosin, human cerebral cortex (HCC) membranes; details: 22°C, 30 minutes, read-out: Ki (nM) α1 human brain
Description: Tissue preparation: Membrane suspensions were prepared from human cerebral cortex (HCC, for α1 receptors) obtained from the UCI Organ and Tissue Bank. Briefly, tissues (1g) were homogenized in 25 mL of ice-cold 5 mM tris, pH 7.4 with a Polytron homogenizer for 30 sec at setting #7, and centrifuged for 10-12 minutes at 300 x g a 4°C. The supernatant was filtered through 2 layers of gauze and diluted 1:2 with 50 mM Tris-HCl buffer, pH 7.4, then centrifuged at 49,000 x g for 20 minutes. The pellet fraction was washed 3 times (resuspended in Tris-HCl buffer and centrifuged for 20 minutes at 49,000 x g). The pellet was then stored at -80°C until the binding assay.
Binding Studies: The radioligands [^3H]rauwolscine (specific activity 80 Ci/mmol) and [^3H]prazosin (specific activity 76 Ci/mmol) were obtained from New England Nuclear, Boston, MA. Frozen membrane pellet was resuspended in 25 mM glycine/glycine, pH 7.5 and incubated with radioligand under the following conditions: CHO-C10, CHO-RNG, CHO-C4-[^3H]rauwolscine, 22°C, 30 minutes; RKC-[^3H]rauwolscine, 0°C, 120 minutes; and, HCC-[^3H]prazosin, 22°C, 30 minutes in a final volume of 500 ul. At the end of the incubation period, the samples were filtered through glass filters (Whatman GF/B) in a 96 well cell harvester and rapidly washed four times with 4 mL of iced-cold 50 mM Tris-HCl buffer. The filters were then oven dried and transferred to scintillation vials containing 10 mL of Beckman's Ready Protein® scintillation cocktail for counting. Specific binding defined by 10 uM phentolamine for competition studies were as follows: 2.4 nM [^3H]brimonidine-RbICB 62%; 2.4 nM [^3H]rauwolscine-RbICB 75%; 2 nM [^3H]rauwolscine-RbKc 88%; 0.3 nM [^3H] rauwolscine-CHO-C10 99%; 0.4 nM [^3H]rauwolscine-CHO-RNG 99%, 0.3 nM [^3H]prazosin 87%; and 1 nM [^3H]rauwolscine-CHO-C4 90%. Protein concentrations were determined with a protein assay kit from Bio Rad. Binding isotherms, equilibrium dissociation and affinity constants were analyzed and determined by the non-linear least squares curve fitting programs EBDA (BioSoft) or AccuFit Competition/Saturation by Beckman.
The radioligands [^3H)rauwolscine (specific activity 80 Ci/mmol) and [^3H]prazosin (specific activity 76 Ci/mmol) were obtained from New England Nuclear, Boston, MA. Frozen membrane pellet was resuspended in 25 mM glycine/glycine, pH 7.4 and incubated with radioligand under the following conditions: CHO-C10, CHO-RNG, CHO-C4-[^3H]rauwolscine, 22°C, 30 min.; and, HCC-[^3H]prazosin, 22°C, 30 minutes in a final volume of 500 ul. At the end of the incubation period, the samples were filtered through glass fiber filters (Whatman GF/B) in a 96 well cell harvester and rapidly washed four times with 4 mL of iced-cold 50 mM Tris-CHl buffer. The filters were then oven dried and transferred to scintillation vials containing 5 mL of Beckman's Ready Protein® scintillation cocktail for counting. Specific binding defined by 10 uM phentolamine for competition studies were as follows: 0.3 nM[^3H] rauwolscine-CHO-C10 99%; 0.4 nM [^3H]rauwolscine-CHO-RNG 99%, and 0.3 nM [^3H] prazosin-HCC 87%. Protein concentrations were determined with a protein assay kit from Bio Rad. Binding isotherms, equilibrium dissociation and affinity constants were analyzed and determined by the non-linear least squares curve fitting programs AccuFit Competition/Saturation by Beckman.

SMILES	Ki [1] [nM]	Ki [2] [nM]
Clc1ccccc1Nc1ncc[nH]1	287	23200
Cc1c(Nc2ncc[nH]2)ccc2nccnc12	31	30600
Clc1cccc(Cl)c1Nc1ncc[nH]1	95	5940
Cc1c(Nc2ncc[nH]2)ccc2c1NCCO2	6.3	14800
c1ccc(Nc2ncc[nH]2)cc1	394	67500
c1cc2c(c(Nc3ncc[nH]3)c1)CCCC2	39	4980
Cc1c(Nc2ncc[nH]2)ccc2c1OCCO2	1.7	2150
Brc1ccccc1Nc1ncc[nH]1	214	9980
COc1ccc(Nc2ncc[nH]2)c(C)c1	10	7610
Brc1c(Nc2ncc[nH]2)ccc2nccnc12	512	100000
Cc1ccccc1Nc1ncc[nH]1	73	10600
